Experimental data published in publication PMC4694659, “Biochemical Characterization of Medaka (Oryzias latipes) Transglutaminases, OlTGK1 and OlTGK2, as Orthologues of Human Keratinocyte-Type Transglutaminase” (PLoS ONE, 2015).

Key:
OlTGK1 = biological target: T1, OlTGK1 (Oryzias latipes, UniProt A0A0S3Q197); assay: microplate transamidation: incorporation of bio-Cd into coated beta-casein, streptavidin-peroxidase read-out; type: biochemical; conditions: amine acceptor substrate; co-substrate beta-casein (coated); CaCl2; Tris-Cl pH 8.0; 25 °C; 20 min; labelled compound
T1 construct: full-length ORF (2067 bp, 688 residues), N-terminal hexahistidine tag, pET24d, E. coli BL21(DE3)LysS; cDNA cloned from embryonic medaka cDNA library (fish kept: Cab strain)
T1 sequence (A0A0S3Q197 1-688): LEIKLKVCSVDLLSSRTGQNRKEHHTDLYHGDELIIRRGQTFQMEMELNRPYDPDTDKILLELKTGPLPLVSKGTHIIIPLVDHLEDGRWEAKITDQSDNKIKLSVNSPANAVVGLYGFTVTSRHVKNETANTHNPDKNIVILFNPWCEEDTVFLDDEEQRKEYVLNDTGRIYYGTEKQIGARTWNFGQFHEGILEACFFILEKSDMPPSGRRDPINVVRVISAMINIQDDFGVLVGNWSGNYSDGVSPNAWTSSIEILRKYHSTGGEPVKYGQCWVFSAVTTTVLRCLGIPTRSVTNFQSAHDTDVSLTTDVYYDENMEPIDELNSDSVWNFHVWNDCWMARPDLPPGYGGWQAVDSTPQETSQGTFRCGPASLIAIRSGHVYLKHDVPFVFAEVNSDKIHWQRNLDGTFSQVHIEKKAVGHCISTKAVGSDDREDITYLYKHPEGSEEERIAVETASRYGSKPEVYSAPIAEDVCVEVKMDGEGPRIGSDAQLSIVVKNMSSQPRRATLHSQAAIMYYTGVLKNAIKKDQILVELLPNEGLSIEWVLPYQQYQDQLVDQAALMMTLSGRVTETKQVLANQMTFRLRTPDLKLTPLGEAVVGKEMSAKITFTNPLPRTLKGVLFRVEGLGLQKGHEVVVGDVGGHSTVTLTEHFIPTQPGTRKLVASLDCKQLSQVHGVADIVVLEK

OlTGK2 = biological target: T2, OlTGK2 (Oryzias latipes, UniProt A0A0S3Q1B1); assay: as above; type: biochemical; conditions: amine acceptor substrate; co-substrate beta-casein (coated); CaCl2; Tris-Cl pH 8.0; 25 °C; 20 min; labelled compound
T2 construct: full-length ORF (2340 bp, 778 residues as printed), N-terminal hexahistidine tag, pET24d, E. coli BL21(DE3)LysS; NBRP cDNA clone olsp48d24 (fish kept: Cab strain)
T2 sequence (A0A0S3Q1B1 1-779): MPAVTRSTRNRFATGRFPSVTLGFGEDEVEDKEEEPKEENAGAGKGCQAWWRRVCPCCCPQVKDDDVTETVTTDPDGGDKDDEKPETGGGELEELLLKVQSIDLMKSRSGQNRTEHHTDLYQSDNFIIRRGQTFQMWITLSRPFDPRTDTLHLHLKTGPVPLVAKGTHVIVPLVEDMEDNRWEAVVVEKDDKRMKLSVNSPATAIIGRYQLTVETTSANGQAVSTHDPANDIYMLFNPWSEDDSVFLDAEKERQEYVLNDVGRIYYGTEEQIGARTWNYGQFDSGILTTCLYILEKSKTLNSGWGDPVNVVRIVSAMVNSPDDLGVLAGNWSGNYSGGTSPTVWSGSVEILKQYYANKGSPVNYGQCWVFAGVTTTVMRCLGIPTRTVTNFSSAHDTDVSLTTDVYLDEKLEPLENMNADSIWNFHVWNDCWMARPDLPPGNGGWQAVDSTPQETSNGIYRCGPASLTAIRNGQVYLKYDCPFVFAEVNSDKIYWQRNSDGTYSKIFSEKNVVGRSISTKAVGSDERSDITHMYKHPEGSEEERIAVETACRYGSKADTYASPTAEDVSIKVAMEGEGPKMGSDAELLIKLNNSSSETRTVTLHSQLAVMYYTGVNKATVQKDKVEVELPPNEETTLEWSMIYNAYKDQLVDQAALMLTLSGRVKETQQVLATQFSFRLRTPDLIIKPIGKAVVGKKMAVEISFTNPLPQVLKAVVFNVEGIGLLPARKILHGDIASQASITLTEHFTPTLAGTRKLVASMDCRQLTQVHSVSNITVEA

## NCCCCCNC(=O)CCCC[C@@H]1SC[C@@H]2NC(=O)N[C@@H]21 [bio-Cd]
OlTGK1
  microplate transamidation: incorporation of bio-Cd into coated beta-casein, stre: apparent incorporation was observed in the presence of three-different amounts of OlTGK1 and OlTGK2
OlTGK2
  microplate transamidation: incorporation of bio-Cd into coated beta-casein, stre: apparent incorporation was observed in the presence of three-different amounts of OlTGK1 and OlTGK2
